Results as given in patent US9556201B2, “Bicyclic pyridines and analogs as sirtuin modulators” (GLAXOSMITHKLINE LLC, priority 2009, dated 2017).
pIC50: −log10 of the molar value.

Assays:
[1] = molecular target: T1, SIRT1 (Homo sapiens, UniProt Q96EB6); experiment: Mass spectrometry based assay to identify modulators of SIRT1 activity (deacetylation of p53-based acetylated peptide substrate); format: biochemical; details: for Emax: 25 min, read-out: % FOLD ACT. (percent maximum fold activation); for Emax / EC1.5: SIRT1 activation
T1 sequence (Q96EB6 1-747): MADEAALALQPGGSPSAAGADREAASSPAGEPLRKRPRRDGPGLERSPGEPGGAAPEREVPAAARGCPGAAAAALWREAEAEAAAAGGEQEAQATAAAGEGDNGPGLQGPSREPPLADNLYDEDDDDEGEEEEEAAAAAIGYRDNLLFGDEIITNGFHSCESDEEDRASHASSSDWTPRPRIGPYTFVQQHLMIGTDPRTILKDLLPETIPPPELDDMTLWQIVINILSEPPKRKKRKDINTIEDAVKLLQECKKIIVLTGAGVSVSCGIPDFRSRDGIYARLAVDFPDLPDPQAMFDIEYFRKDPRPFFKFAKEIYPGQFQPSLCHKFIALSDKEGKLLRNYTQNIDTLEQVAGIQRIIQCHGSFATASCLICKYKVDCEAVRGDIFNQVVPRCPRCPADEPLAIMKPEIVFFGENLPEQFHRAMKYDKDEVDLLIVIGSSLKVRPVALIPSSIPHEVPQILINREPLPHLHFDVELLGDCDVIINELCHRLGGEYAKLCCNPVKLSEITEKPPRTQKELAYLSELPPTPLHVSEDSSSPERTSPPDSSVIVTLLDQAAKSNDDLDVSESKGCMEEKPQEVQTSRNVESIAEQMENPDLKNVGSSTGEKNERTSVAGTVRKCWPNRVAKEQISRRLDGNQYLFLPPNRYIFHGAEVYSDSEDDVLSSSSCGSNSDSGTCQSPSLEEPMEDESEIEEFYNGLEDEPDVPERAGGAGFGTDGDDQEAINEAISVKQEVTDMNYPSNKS
How it was run: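 His-tagged human SIRT1 (10 nM, E. coli) incubated 25 min at 25 °C with […] p53-derived acetylated 5TMR peptide and 120 μM βNAD+ in pH 8 Tris-acetate buffer, then formic acid-stopped. Mass spectrometry quantifies acetylated vs deacetylated peptide; nicotinamide and DMSO controls.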

[2] = system: TNF; experiment: TNF IC50 (column of Table 1; method not shown); format: cell-based
[3] = system: TNF; experiment: TNF IC50 (column of Table 1; method not in the text shown); format: cell-based

SMILES | Emax [1] [%] | EC1.5 [1] | pIC50 [2] | EC1.5 (concentration giving 1.5-fold activation) [1] [nM] | pIC50 [3]
Cc1csc(NC(=O)N2CC(C)(C)Oc3ccc(-c4cccc(F)c4)nc32)n1 [Compound 622] | > 200 | A (EC1.5<1.0 μM) | ≤ 4.70 | – | –
CN(C)c1cccc(-c2ccc3c(n2)N(C(=O)Nc2cncc(F)c2)CC(C)(C)O3)c1 [Compound 623] | > 200 | A (EC1.5<1.0 μM) | ≤ 4.70 | – | –
Cc1cc(NC(=O)N2CCOc3ccc(-c4cccc(C#N)c4)nc32)cc(C)n1 [Compound 631] | > 200 | A (EC1.5<1.0 μM) | ≤ 4.70 | – | –
Cc1cc(C)nc(NC(=O)N2CCCc3ccc(-c4cccc(C(F)(F)F)c4)nc32)c1 [Compound 647] | > 200 | A (EC1.5<1.0 μM) | ≤ 4.70 | – | –
O=C(Nc1cccnc1)N1CCCc2ccc(-c3cccc(Cl)c3)nc21 [Compound 653] | > 200 | A (EC1.5<1.0 μM) | ≤ 4.70 | – | –
Cc1cc(C)nc(NC(=O)N2CCCc3ccc(-c4cccc(Cl)c4)nc32)c1 [Compound 654] | > 200 | A (EC1.5<1.0 μM) | ≤ 4.70 | – | –
Cc1cc(NC(=O)N2CC(C)(C)Oc3ccc(-c4cccc(N5CC[C@H](F)C5)c4)nc32)cc(C)n1 [Compound 658] | > 200 | A (EC1.5<1.0 μM) | ≤ 4.70 | – | –
Cc1cncc(NC(=O)N2CC(C)(C)Oc3ccc(-c4cccc(N5CC[C@H](F)C5)c4)nc32)c1 [Compound 660, (S)-6-(3-(3-fluoropyrrolidin-1-yl)phenyl)-2,2-dimethyl-N-(5-methylpyridin-3-yl)-2H-pyrido[3,2-b][1,4]oxazine-4(3H)-carboxamide] | > 200 | A (EC1.5<1.0 μM) | ≤ 4.70 | – | –
CC1(C)CN(C(=O)Nc2cncc(F)c2)c2nc(-c3cccc(N4CC[C@H](F)C4)c3)ccc2O1 [Compound 661] | > 200 | A (EC1.5<1.0 μM) | ≤ 4.70 | – | –
Cc1cc(-c2cccc(C(F)(F)F)c2)nc2c1OCCN2C(=O)Nc1ccncc1F [Compound 663] | > 200 | A (EC1.5<1.0 μM) | ≤ 4.70 | – | –
Cc1cc(C)nc(NC(=O)N2CCCc3ccc(-c4cccc(F)c4)nc32)c1 [Compound 664] | > 200 | A (EC1.5<1.0 μM) | ≤ 4.70 | – | –
Cc1csc(NC(=O)N2CCOc3c(C)cc(-c4cccc(C(F)(F)F)c4)nc32)n1 [Compound 668, 8-methyl-N-(4-methylthiazol-2-yl)-6-(3-(trifluoromethyl)phenyl)-2H-pyrido[3,2-b][1,4]oxazine-4(3H)-carboxamide] | > 200 | A (EC1.5<1.0 μM) | ≤ 4.70 | – | –
Cc1cc(-c2cccc(C(F)(F)F)c2)nc2c1OCCN2C(=O)Nc1ccncn1 [Compound 669] | > 200 | A (EC1.5<1.0 μM) | ≤ 4.70 | – | –
Cc1cncc(NC(=O)N2CCOc3c(C)cc(-c4cccc(C(F)(F)F)c4)nc32)c1 [Compound 670] | > 200 | A (EC1.5<1.0 μM) | ≤ 4.70 | – | –
Cc1cc(C)nc(NC(=O)N2CCOc3c(C)cc(-c4cccc(C(F)(F)F)c4)nc32)c1 [Compound 672] | ≤ 200 | A (EC1.5<1.0 μM) | ≤ 4.70 | – | –
O=C(Nc1cccc(OC[C@H](O)CO)n1)N1CCCc2ccc(-c3cccc(C(F)(F)F)c3)nc21 [Compound 678] | > 200 | A (EC1.5<1.0 μM) | ≤ 4.70 | – | –
Cc1cc(-c2cccc(C(F)(F)F)c2)nc2c1OCCN2C(=O)Nc1ccnc(N2CCC2)c1 [Compound 683] | > 200 | A (EC1.5<1.0 μM) | ≤ 4.70 | – | –
Cc1csc(NC(=O)N2CCOc3c(C)cc(-c4cccc(Cl)c4)nc32)n1 [Compound 684] | > 200 | A (EC1.5<1.0 μM) | ≤ 4.70 | – | –
Cc1cncc(NC(=O)N2CCOc3c(C)cc(-c4cccc(Cl)c4)nc32)c1 [Compound 688] | > 200 | A (EC1.5<1.0 μM) | ≤ 4.70 | – | –
Cc1cc(NC(=O)N2CCOc3c(C)cc(-c4cccc(Cl)c4)nc32)cc(C)n1 [Compound 689] | > 200 | A (EC1.5<1.0 μM) | ≤ 4.70 | – | –
Cc1cc(C)nc(NC(=O)N2CCOc3c(C)cc(-c4cccc(Cl)c4)nc32)c1 [Compound 690] | > 200 | A (EC1.5<1.0 μM) | ≤ 4.70 | – | –
Cc1cc(-c2cccc(Cl)c2)nc2c1OCCN2C(=O)Nc1ccnc(N2CCC2)c1 [Compound 692] | > 200 | A (EC1.5<1.0 μM) | ≤ 4.70 | – | –
O=C(Nc1ccnc(OCC(O)CO)n1)N1CCOc2ccc(-c3cccc(C(F)(F)F)c3)nc21 (stereo not drawn) [Compound 697] | > 200 | – | – | < 1000 | ≤ 4.70
CN(C)c1cccc(-c2ccc3c(n2)N(C(=O)Nc2cccc(OC[C@H](O)CO)n2)CCC3)c1 [Compound 699] | > 200 | – | – | < 1000 | > 4.70
N#Cc1cccc(-c2ccc3c(n2)N(C(=O)Nc2cccc(OC[C@H](O)CO)n2)CCC3)c1 [Compound 700] | > 200 | – | – | < 1000 | > 4.70

Second part, the compound after the results:

Emax [1] [%] | EC1.5 [1] | pIC50 [2] | EC1.5 (concentration giving 1.5-fold activation) [1] [nM] | pIC50 [3] | SMILES
> 200 | A (EC1.5<1.0 μM) | > 4.70 | – | – | Cc1csc(NC(=O)N2CCCc3ccc(-c4cccc(F)c4)nc32)n1 [Compound 620]
> 200 | A (EC1.5<1.0 μM) | > 4.70 | – | – | Cc1csc(NC(=O)N2CC(C)(C)Oc3ccc(-c4cccc(N(C)C)c4)nc32)n1 [Compound 624]
> 200 | A (EC1.5<1.0 μM) | > 4.70 | – | – | Cc1cc(NC(=O)N2CCCOc3ccc(-c4cccc(Cl)c4)nc32)cc(C)n1 [Compound 626]
> 200 | A (EC1.5<1.0 μM) | > 4.70 | – | – | O=C(Nc1cncc(OCC(O)CO)n1)N1CCCc2ccc(-c3cccc(C(F)(F)F)c3)nc21 (stereo not drawn) [Compound 638]
> 200 | A (EC1.5<1.0 μM) | > 4.70 | – | – | O=C(Nc1ccnc(OCC(O)CO)n1)N1CCCc2ccc(-c3cccc(C(F)(F)F)c3)nc21 (stereo not drawn) [Compound 639]
> 200 | A (EC1.5<1.0 μM) | > 4.70 | – | – | Cc1cncc(NC(=O)N2CCOc3ccc(-c4cccc(N5CCCC5)c4)nc32)c1 [Compound 644]
> 200 | A (EC1.5<1.0 μM) | > 4.70 | – | – | O=C(Nc1ccncc1)N1CCCc2ccc(-c3cccc(C(F)(F)F)c3)nc21 [Compound 645]
> 200 | A (EC1.5<1.0 μM) | > 4.70 | – | – | O=C(Nc1ccccn1)N1CCCc2ccc(-c3cccc(C(F)(F)F)c3)nc21 [Compound 646]
> 200 | A (EC1.5<1.0 μM) | > 4.70 | – | – | Cc1cc(NC(=O)N2CC(C)(C)Oc3ccc(-c4cccc(N5CCOCC5)c4)nc32)cc(C)n1 [Compound 659]
> 200 | A (EC1.5<1.0 μM) | > 4.70 | – | – | Cc1cc(-c2cccc(C(F)(F)F)c2)nc2c1OCCN2C(=O)Nc1ccncc1 [Compound 662]
> 200 | A (EC1.5<1.0 μM) | > 4.70 | – | – | Cc1cc(NC(=O)N2CCOc3c(C)cc(-c4cccc(C(F)(F)F)c4)nc32)cc(C)n1 [Compound 671]
> 200 | A (EC1.5<1.0 μM) | > 4.70 | – | – | Cc1csc(NC(=O)N2CC(C)(C)Oc3ccc(-c4cccc(N5CCOCC5)c4)nc32)n1 [Compound 675]
> 200 | A (EC1.5<1.0 μM) | > 4.70 | – | – | Cc1cc(-c2cccc(C(F)(F)F)c2)nc2c1OCCN2C(=O)Nc1cccc(OCC(O)CO)n1 (stereo not drawn) [Compound 682]
> 200 | A (EC1.5<1.0 μM) | > 4.70 | – | – | Cc1cc(-c2cccc(Cl)c2)nc2c1OCCN2C(=O)Nc1cccc(OCC(O)CO)n1 (stereo not drawn) [Compound 691]
> 200 | A (EC1.5<1.0 μM) | > 4.70 | – | – | O=C(Nc1cccc(OC[C@H](O)CO)n1)N1CCOc2ccc(-c3ccc4c(c3)CCO4)nc21 [Compound 695]
> 200 | A (EC1.5<1.0 μM) | > 4.70 | – | – | O=C(Nc1cncc(OCC(O)CO)n1)N1CCOc2ccc(-c3cccc(C(F)(F)F)c3)nc21 (stereo not drawn) [Compound 696, N-(6-(2,3-dihydroxypropoxy)pyrazin-2-yl)-6-(3-(trifluoromethyl)phenyl)-2H-pyrido[3,2-b][1,4]oxazine-4(3H)-carboxamide]
